Data published in article PMC10491836, “Structural dynamics influences the antibacterial activity of a cell-penetrating peptide (KFF)3K” (Scientific Reports, 2023).
≈ marks a conversion by molar mass, not a printed value. Read-outs that look alike come from different tables or passages of the source. Positions of bridges follow the written chain, without caps; N, C: chain ends. Non-standard residues stand in square brackets, D forms with d. Residues, ends and D or L forms follow the SMILES beside them. No end group written: not given here. S5 = C=CCCC[C@](C)(N)C(=O)O

Assays:
[1] = test system: Ps. aeruginosa ATCC 27853; format: cell-based
Method: (§1) The minimal inhibitory concentration (MIC) values were determined as follows. Bacteria were first cultured overnight in 2 mL of Lysogeny Broth (LB, VWR Chemicals) at 37 °C with shaking. Second, 20 µL of overnight culture was transferred into 2 mL of MHB medium and further cultured at 37 °C with shaking until the culture reached OD600 of 0.3. Third, the culture was diluted 1:100 in a fresh MHB medium and aliquots of 50 µL were mixed with 50 µL of the previously prepared dilutions of the tested compound in MHB on a transparent flat-bottom 96-well plate (Nest). The plate was then sealed with transparent foil (Titer-Tops) and incubated for 20 h, at 37 °C with shaking. Following incubation, OD at 600 nm was measured using the Tecan Sunrise plate reader. Growth inhibition was determined by comparing the given sample with untreated culture (Growth Control—GC) with MHB alone (Sterility Control—SC) as an additional reference. The experiment was performed in at least two biological replicates of two technical replicates each. Statistical significance was determined by a Two-way ANOVA test using GraphPad Prism 9.

[2] = test system: E. coli O157:H7 ST2-8624; format: cell-based; settings: MHB, 20 h, 37 °C, OD600; at least two biological replicates of two technical replicates; tested up to 32 µM
Method: as §1

[3] = test system: E. coli 1841-06; format: cell-based
Method: as §1

[4] = test system: S. aureus ATCC BAA1720 MRSA; format: cell-based; settings: MHB, 20 h, 37 °C, OD600; methicillin-resistant strain; tested up to 32 µM
Method: as §1

[5] = test system: S. aureus ATCC 29213; format: cell-based
Method: as §1

[6] = test system: E. coli K12; assay: Antibacterial activity determination, MIC; format: cell-based; settings: MHB, 20 h, 37 °C, OD600; reference non-pathogenic strain; tested up to 32 µM
Method: as §1

[7] = test system: Ps. aeruginosa ATCC 27853; format: cell-based; remark: listed apart in the source
Method: (§2) The minimal bactericidal concentration (MBC) values were determined, by diluting wells from the MIC experiment plate in fresh MHB medium. Dilutions of 10, 100, and 1000 times were prepared for the MIC well and up to two higher than MIC concentrations of the tested compound. Dilutions were made on a transparent flat-bottom 96-well plate (Nest) that was next sealed and incubated for 24 h, at 37 °C with shaking. Growth in a given sample well was compared with GC and SC controls.

[8] = test system: E. coli O157:H7 ST2-8624; format: cell-based; settings: wells of MIC plate diluted 10, 100, 1000 times in MHB, 24 h, 37 °C
Method: as §2

[9] = test system: E. coli 1841-06; format: cell-based; remark: listed apart in the source
Method: as §2

[10] = test system: S. aureus ATCC BAA1720 MRSA; format: cell-based
Method: as §2

[11] = test system: E. coli K12; format: cell-based
Method: as §2

[12] = test system: S. aureus ATCC 29213; format: cell-based; remark: listed apart in the source
Method: as §2

[13] = target: T1, α-chymotrypsin from bovine pancreas (Bos taurus, UniProt P00766); assay: in vitro; format: in vitro ADME; settings: pH 8
T1 construct: α-chymotrypsin from bovine pancreas; from tissue; host or cells: bovine pancreas
Method: (§3) The proteolytic stability of peptides was analyzed against α-chymotrypsin from bovine pancreas (3.4.21.1, ≥ 40 units/mg protein). Peptide solutions (340 µL) in ammonium bicarbonate buffer (0.1 M NH4HCO3, pH 8.0) were incubated with the appropriate amount of chymotrypsin at 37 °C with rapid shaking (600 rpm). Chymotrypsin and peptides were mixed in the 1:1333 ratio[47],[71]. Digestion mixture (60 µL) was taken at 4, 8, 12, 16, and 20 min and treated with 3 µL of 50% acetonitrile containing 1% TFA to stop the reaction and immediately store in ice. Peptide degradation was analyzed with RP-HPLC using the analytical method from 15 to 75% of acetonitrile in 30 min. Before the injection, the sample was diluted by adding 57 µL of ammonium bicarbonate buffer. 100 µL of the solution taken in each period was injected. The stabilities were quantified as the percentage of the peptide peak of area degradation. The total area of each peak was determined for experiments without chymotrypsin. Each experiment was performed twice on different days.

[14] = test system: Gram-positive and Gram-negative strains; settings: both Gram-positive and Gram-negative strains; cited from earlier work
Description: Furthermore, a single-point mutation of a peptide sequence can change its solely cell-penetrating ability into antimicrobial activity, or vice versa. It was shown that the incorporation of hydrophobic or cationic residues changed the character of a CPP into a more antibacterial one.

[15] = test system: T2, α-chymotrypsin; assay: in vitro; format: in vitro ADME, bovine; settings: isolated enzyme chymotrypsin, pH 8
T2 construct: α-chymotrypsin from bovine pancreas; from tissue; host or cells: bovine pancreas
Method: as §3

[16] = test system: various Gram-positive and Gram-negative strains; assay: MIC over the panel of strains (summary statements); format: cell-based
Method: as §1

[17] = MHB, 20 h, 37 °C, OD600, tested up to 32 µM
[18] = wells of MIC plate diluted 10, 100, 1000 times in MHB, 24 h, 37 °C

Compound | MIC ([1]; ATCC 27853, 20 h) [µM] | MIC [2] [µM] | MIC ([3]; 1841-06, 20 h) [µM] | MIC [4] [µM] | MIC ([5]; ATCC 29213, 20 h) [µM] | MIC [6] [µM] | MBC ([7]; ATCC 27853, 24 h) [µM] | MBC [8] [µM] | MBC ([9]; 1841-06, 24 h) [µM] | MBC ([10]; ATCC BAA1720, 24 h) [µM] | MBC ([11]; K12, 24 h) [µM] | MBC ([12]; ATCC 29213, 24 h) [µM] | further results
C[C@@]1(C(=O)N[C@@H](CCCCN)C(=O)N[C@@H](Cc2ccccc2)C(=O)N[C@@H](Cc2ccccc2)C(=O)N[C@@H](CCCCN)C(N)=O)CCCC=CCCC[C@](C)(NC(=O)[C@@H](N)CCCCN)C(=O)N[C@@H](Cc2ccccc2)C(=O)N[C@@H](CCCCN)C(=O)N[C@@H](Cc2ccccc2)C(=O)N1 [(KFF)3K[2–6]] (H-K[S5]FKF[S5]KFFK-NH2; staple 2-6) | 4 to 8 | 4 (≈ 5.48 µg/mL) | 4 (≈ 5.48 µg/mL) | 8 (≈ 11 µg/mL) | 16 (≈ 21.9 µg/mL) | 2 (≈ 2.74 µg/mL) | 8 (≈ 11 µg/mL) | 4 (≈ 5.48 µg/mL) | 4 (≈ 5.48 µg/mL) | 16 to 32 | 2 (≈ 2.74 µg/mL) | 16 to 32 | –
C[C@@]1(C(=O)N[C@@H](CCCCN)C(N)=O)CCCC=CCCC[C@](C)(NC(=O)[C@H](CCCCN)NC(=O)[C@H](Cc2ccccc2)NC(=O)[C@H](Cc2ccccc2)NC(=O)[C@@H](N)CCCCN)C(=O)N[C@@H](Cc2ccccc2)C(=O)N[C@@H](CCCCN)C(=O)N[C@@H](Cc2ccccc2)C(=O)N1 [(KFF)3K[5–9]] (H-KFFK[S5]FKF[S5]K-NH2; staple 5-9) | 4 (≈ 5.48 µg/mL) | 8 (≈ 11 µg/mL) | 4 (≈ 5.48 µg/mL) | 16 (≈ 21.9 µg/mL) | 8 to 16 | 2 (≈ 2.74 µg/mL) | 4 (≈ 5.48 µg/mL) | 8 (≈ 11 µg/mL) | 8 (≈ 11 µg/mL) | 32 (≈ 43.8 µg/mL) | 2 (≈ 2.74 µg/mL) | 16 (≈ 21.9 µg/mL) | peptide remained undigested after incubation in chymotrypsin solution [13]: 90%
KETWWETWWTEWSQPKKKRKV [Pep-1, amphipathic cell-penetrating peptide quoted from the literature] | – | – | – | – | – | – | – | – | – | – | – | – | MIC [14]: 32 to 64 µM
KFFKFFKFFK-NH2 [(KFF)3K] | 32 | 32 | > 32 | > 32 | > 32 | 32 | ≥ 32 | ≥ 32 | > 32 | > 32 | 32 | > 32 | metabolised at 20 min [15]: 70%; MIC ([16]; all Gram-positive and Gram-negative strains tested): > 32 µM
polymyxin B | – | 0.5 to 1 | – | > 32 | – | 0.125 | – | 0.5 to 1 | – | – | – | – | MIC [1, 17]: 1 µM; MIC ([3]; MHB, 20 h, 37 °C, OD600, β-lactam resistant strain, tested up to 32 µM): 1 µM; MIC [5, 17]: > 32 µM; antibacterial activity ([16]; Gram-positive strains, tested up to 32 µM): not active; MBC [7, 18]: 1 µM; MBC [9, 18]: 1 µM; MBC [10, 18]: > 32 µM; MBC [11, 18]: 0.125 µM; MBC [12, 18]: > 32 µM
